{"source": "patent US20040115331A1", "about": "“Ximenynic acid compositions, methods for their production and uses thereof” (priority 2002, published 2004)", "test_system": "enteroendocrine L-cells", "assay": "Secretion of satiety inducing peptides (CCK-8, GLP-1) by enteroendocrine L-cells, radio immuno assay", "assay_type": "cell-based", "conditions": "L-cells incubated 2 h at 37° C in KRB buffer; compared with equal amounts of palmitic acid", "experimental": "To estimate the effects of ximenynic acid on satiety we measure the excretion of satiety inducing peptides (CCK-8 and GLP-1 L) by enteroendocrine L-cells. Two days prior to experiment 1*10^6 are cultured in 12-well culture plates. On the day of the experiment supernatants are replaced by Krebs-Ringer bicarbonate (KRB) buffer containing either control or test substances. Prior to the addition the solutions are adjusted to pH 7.2. Cells are incubated for 2 h at 37° C. Following incubation, supernatants are collected and measured by radio immuno assay for the amount of CCK-8 or GLP-1 which has been secreted.", "data": [{"smiles": "CCCCCC/C=C/C#CCCCCCCCC(=O)O", "note": "[ximenynic acid, octadeca-trans-11-en-9-ynoic acid]", "values": [{"measurement": "release of CCK-8", "result": "significantly greater release"}, {"measurement": "release of GLP-1", "result": "significantly greater release"}]}]}
